Experimental data reported in ChEMBL document CHEMBL1201862, “PubChem BioAssay data set” (2004).
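In this assay, cells in 96-well plates receive the compound at five concentrations for 48 hours. Endpoints are linearly interpolated between the surrounding concentrations. GI50 marks 50% less growth.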 Activity calls are given as the source filed them. Rule as the data show it: active = GI50 up to about 1.1 µM and inactive = higher.

Experiments:
Assay in all cases: DTP human tumour cell line panel, 48 h
ACHN = test system: ACHN
COLO 205 = test system: COLO 205
HCC 2998 = test system: HCC 2998
HCT-15 = test system: HCT-15
HL-60 = test system: HL-60
HT-29 = test system: HT-29
KM12 = test system: KM12
MOLT-4 = test system: MOLT-4
Malme-3M = test system: Malme-3M
NCI-H23 = test system: NCI-H23
RXF 393 = test system: RXF 393
SK-MEL-28 = test system: SK-MEL-28
SK-MEL-2 = test system: SK-MEL-2
UACC-257 = test system: UACC-257
UACC-62 = test system: UACC-62
UO-31 = test system: UO-31
SNB-19 = test system: SNB-19
SW-620 = test system: SW-620
MDA-MB-435 = test system: MDA-MB-435
PC-3 = test system: PC-3

Structure (SMILES) | GI50 (ACHN) | GI50 (COLO 205) | GI50 (HCC 2998) | GI50 (HCT-15) | GI50 (HL-60) | GI50 (HT-29) | GI50 (KM12) | GI50 (MOLT-4) | GI50 (Malme-3M) | GI50 (NCI-H23) | GI50 (RXF 393) | GI50 (SK-MEL-28) | GI50 (SK-MEL-2) | GI50 (UACC-257) | GI50 (UACC-62) | GI50 (UO-31) | GI50 (SNB-19) | GI50 (SW-620) | GI50 (MDA-MB-435) | GI50 (PC-3)
O=C(NNC(=O)c1cc(/C=C/c2cccc([N+](=O)[O-])c2)nc(S)n1)Nc1ccc(Cl)cc1 | > 100 µM (inactive) | 18.4 µM (inactive) | > 100 µM (inactive) | 35.6 µM | 0.883 µM (active) | 41.8 µM (inactive) | 98.9 µM (inactive) | 23.6 µM (inactive) | > 100 µM (inactive) | 77.4 µM (inactive) | 34.5 µM (inactive) | > 100 µM (inactive) | > 100 µM (inactive) | 91 µM (inactive) | 50.6 µM (inactive) | 91.2 µM (inactive) | – | – | – | –
C/C(=N\NC(=O)c1ccccc1O)c1c(O)cc(C)oc1=O | 45 µM (inactive) | > 100 µM (inactive) | 92 µM (inactive) | 91.2 µM | 63.2 µM (inactive) | > 100 µM (inactive) | > 100 µM (inactive) | 67.5 µM (inactive) | 99.5 µM (inactive) | 84.1 µM (inactive) | 40.6 µM (inactive) | > 100 µM (inactive) | > 100 µM (inactive) | 60 µM (inactive) | 25.6 µM (inactive) | 31.5 µM (inactive) | 63.5 µM (inactive) | > 100 µM (inactive) | – | –
COC(=O)CC(CC(=O)C(=O)OC)C(=O)OC (centres undefined) | > 100 µM (inactive) | > 100 µM (inactive) | > 100 µM (inactive) | > 100 µM | > 100 µM (inactive) | > 100 µM (inactive) | > 100 µM (inactive) | > 100 µM (inactive) | > 100 µM (inactive) | > 100 µM (inactive) | > 100 µM (inactive) | > 100 µM (inactive) | > 100 µM (inactive) | > 100 µM (inactive) | > 100 µM (inactive) | > 100 µM (inactive) | > 100 µM (inactive) | > 100 µM (inactive) | – | –
CCOC(OCC)N1C(=O)C2(C(OCC)OCC)CC3C(OC(=O)N3N)c3cccc1c32 (centres undefined) | > 100 µM (inactive) | > 100 µM (inactive) | > 100 µM (inactive) | > 100 µM | > 100 µM (inactive) | > 100 µM (inactive) | > 100 µM (inactive) | 79.4 µM (inactive) | > 100 µM (inactive) | > 100 µM (inactive) | > 100 µM (inactive) | > 100 µM (inactive) | – | > 100 µM (inactive) | > 100 µM (inactive) | > 100 µM (inactive) | > 100 µM (inactive) | > 100 µM (inactive) | > 100 µM (inactive) | –
COc1cc2c(cc1O)[C@H](C)C(c1ccc(Cl)cc1)O2 (some centres undefined) | 14.1 µM (inactive) | 27.2 µM (inactive) | 18.5 µM (inactive) | 13.1 µM | 14.2 µM (inactive) | 30.9 µM (inactive) | 25.2 µM (inactive) | 15.3 µM (inactive) | 24.6 µM (inactive) | 21 µM (inactive) | 24.6 µM (inactive) | 28.6 µM (inactive) | 21.3 µM (inactive) | 19.8 µM (inactive) | 21.2 µM (inactive) | 24.4 µM (inactive) | 74.8 µM (inactive) | 17.4 µM (inactive) | – | –
Cc1ccc(S(=O)(=O)NC(=O)NC(C(=O)O)C(C)O)cc1 (centres undefined) | > 100 µM (inactive) | > 100 µM (inactive) | – | > 100 µM | > 100 µM (inactive) | > 100 µM (inactive) | > 100 µM (inactive) | > 100 µM (inactive) | > 100 µM (inactive) | > 100 µM (inactive) | > 100 µM (inactive) | > 100 µM (inactive) | > 100 µM (inactive) | > 100 µM (inactive) | > 100 µM (inactive) | > 100 µM (inactive) | > 100 µM (inactive) | > 100 µM (inactive) | – | > 100 µM (inactive)
O=c1cc(-c2ccncc2)[nH]c2cc3c(cc12)OCO3 | > 100 µM (inactive) | > 100 µM (inactive) | > 100 µM (inactive) | > 100 µM | – | > 100 µM (inactive) | > 100 µM (inactive) | > 100 µM (inactive) | – | > 100 µM (inactive) | > 100 µM (inactive) | > 100 µM (inactive) | > 100 µM (inactive) | > 100 µM (inactive) | > 100 µM (inactive) | > 100 µM (inactive) | > 100 µM (inactive) | > 100 µM (inactive) | > 100 µM (inactive) | –
COc1ccc2c(CN3CCCCC3CO)cc3cc(OC)c(OC)cc3c2c1 (centres undefined) | 3.5 µM (inactive) | 2.58 µM (inactive) | 7.59 µM (inactive) | 4.38 µM | 3.38 µM (inactive) | 2.43 µM (inactive) | 4.35 µM (inactive) | 2.82 µM (inactive) | 4.63 µM (inactive) | 3.81 µM (inactive) | 6.65 µM (inactive) | 6.32 µM (inactive) | 4.17 µM (inactive) | 3.82 µM (inactive) | 10.4 µM (inactive) | 2.87 µM (inactive) | 4.04 µM (inactive) | 3.88 µM (inactive) | – | –
COC(=O)C1=CC2OC13CC1CCC3(C2=O)C1(C)C (centres undefined) | 8.83 µM (inactive) | 15.5 µM (inactive) | 14.5 µM (inactive) | 5.36 µM | 6.9 µM (inactive) | 13.2 µM (inactive) | 16.5 µM (inactive) | 14 µM (inactive) | 8.07 µM (inactive) | 16 µM (inactive) | 12 µM (inactive) | – | 15.2 µM (inactive) | 10.4 µM (inactive) | 16.3 µM (inactive) | 5.89 µM (inactive) | 21.6 µM (inactive) | 4.05 µM (inactive) | – | –
C/C(CC(=O)Nc1ccc(NC(=O)C/C(C)=N\NC(N)=O)cc1)=N/NC(N)=O | 99.8 µM (inactive) | > 50.9 µM (inactive) | > 100 µM (inactive) | > 42.3 µM | > 61.7 µM (inactive) | 96.8 µM (inactive) | > 100 µM (inactive) | 47.2 µM (inactive) | > 100 µM (inactive) | 98.4 µM (inactive) | > 91.4 µM (inactive) | > 44.4 µM (inactive) | > 95.3 µM (inactive) | > 100 µM (inactive) | > 84.9 µM (inactive) | > 85.1 µM (inactive) | > 100 µM (inactive) | > 100 µM (inactive) | – | –
CCOC(=O)C1(c2ccccc2)CCC(=O)CC1 | > 100 µM (inactive) | > 100 µM (inactive) | > 100 µM (inactive) | > 100 µM | > 100 µM (inactive) | > 100 µM (inactive) | > 100 µM (inactive) | > 100 µM (inactive) | > 100 µM (inactive) | > 100 µM (inactive) | > 100 µM (inactive) | > 100 µM (inactive) | > 100 µM (inactive) | > 100 µM (inactive) | > 100 µM (inactive) | > 100 µM (inactive) | > 100 µM (inactive) | > 100 µM (inactive) | – | –
O=c1nc(NC(c2ccccc2)(c2ccccc2)c2ccccc2)ccn1CCO | 48.5 µM (inactive) | > 100 µM (inactive) | > 100 µM (inactive) | 63.5 µM | 41 µM (inactive) | 60 µM (inactive) | 60.3 µM (inactive) | 29.9 µM (inactive) | > 100 µM (inactive) | > 100 µM (inactive) | 6.52 µM (inactive) | > 100 µM (inactive) | > 100 µM (inactive) | > 100 µM (inactive) | – | > 100 µM (inactive) | > 100 µM (inactive) | > 100 µM (inactive) | – | –
CCCCCCCCCCCCNC(=S)OCCCC | > 100 µM (inactive) | – | > 100 µM (inactive) | > 100 µM | 16.4 µM (inactive) | 72.3 µM (inactive) | 28 µM (inactive) | 17.9 µM (inactive) | > 100 µM (inactive) | > 100 µM (inactive) | > 100 µM (inactive) | 76.6 µM (inactive) | 17.2 µM (inactive) | 35.7 µM (inactive) | > 100 µM (inactive) | > 100 µM (inactive) | > 100 µM (inactive) | > 100 µM (inactive) | – | –
COc1cccc2c1OC1Sc3ccccc3-c3nn(-c4ccccc4)c-2c31 (centres undefined) | > 100 µM (inactive) | > 100 µM (inactive) | > 100 µM (inactive) | – | > 100 µM (inactive) | > 100 µM (inactive) | > 100 µM (inactive) | > 100 µM (inactive) | > 100 µM (inactive) | > 100 µM (inactive) | > 100 µM (inactive) | > 100 µM (inactive) | > 100 µM (inactive) | > 100 µM (inactive) | – | > 100 µM (inactive) | – | > 100 µM (inactive) | – | –
Cc1ccc2nc(N)[nH]c(=O)c2c1Sc1ccncc1 | 7.35 µM (inactive) | > 92.9 µM (inactive) | 1.36 µM (inactive) | > 100 µM | 10.9 µM (inactive) | > 100 µM (inactive) | > 51.6 µM (inactive) | 6.28 µM (inactive) | > 65.2 µM (inactive) | 60.3 µM (inactive) | 55.8 µM (inactive) | > 92.3 µM (inactive) | > 100 µM (inactive) | > 100 µM (inactive) | 7.4 µM (inactive) | 64.1 µM (inactive) | > 100 µM (inactive) | > 100 µM (inactive) | – | –
Nc1ccc2ncc(Nc3ccc(Cl)c(Cl)c3)nc2c1 | 16.9 µM (inactive) | 16.7 µM (inactive) | 17.6 µM (inactive) | 34 µM | 14.5 µM (inactive) | 14.8 µM (inactive) | 25.9 µM (inactive) | 17.7 µM (inactive) | 23.1 µM (inactive) | 18.7 µM (inactive) | 24.7 µM (inactive) | 26.5 µM (inactive) | 26.4 µM (inactive) | 19.4 µM (inactive) | 20.2 µM (inactive) | 19.7 µM (inactive) | 24.5 µM (inactive) | 35.2 µM (inactive) | – | –
